Reference: patent US20240174662A1, “SMALL MOLECULE INHIBITORS OF SALT INDUCIBLE KINASES” (Janssen Biotech, Inc., priority 2021, published 2024)

Biological target: SIK2 (Homo sapiens (Human), UniProt Q9H0K1)
Experiment: SIK2 Enzymatic Assay Version 2 (High ATP)
Type: biochemical
Conditions: 3 mM ATP and 200 μM HDAC5tide final, ADP-Glo Max luminescence
Outline: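 Luminescent ADP-Glo Max read-out: depletion reagent 2 h, then detection reagent 1 h. Before the reaction, compounds were incubated 30 min with enzyme added at 6 nM (twice final concentration), with all steps at room temperature.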

Sequence of SIK2 (Q9H0K1 whole entry, species assumed): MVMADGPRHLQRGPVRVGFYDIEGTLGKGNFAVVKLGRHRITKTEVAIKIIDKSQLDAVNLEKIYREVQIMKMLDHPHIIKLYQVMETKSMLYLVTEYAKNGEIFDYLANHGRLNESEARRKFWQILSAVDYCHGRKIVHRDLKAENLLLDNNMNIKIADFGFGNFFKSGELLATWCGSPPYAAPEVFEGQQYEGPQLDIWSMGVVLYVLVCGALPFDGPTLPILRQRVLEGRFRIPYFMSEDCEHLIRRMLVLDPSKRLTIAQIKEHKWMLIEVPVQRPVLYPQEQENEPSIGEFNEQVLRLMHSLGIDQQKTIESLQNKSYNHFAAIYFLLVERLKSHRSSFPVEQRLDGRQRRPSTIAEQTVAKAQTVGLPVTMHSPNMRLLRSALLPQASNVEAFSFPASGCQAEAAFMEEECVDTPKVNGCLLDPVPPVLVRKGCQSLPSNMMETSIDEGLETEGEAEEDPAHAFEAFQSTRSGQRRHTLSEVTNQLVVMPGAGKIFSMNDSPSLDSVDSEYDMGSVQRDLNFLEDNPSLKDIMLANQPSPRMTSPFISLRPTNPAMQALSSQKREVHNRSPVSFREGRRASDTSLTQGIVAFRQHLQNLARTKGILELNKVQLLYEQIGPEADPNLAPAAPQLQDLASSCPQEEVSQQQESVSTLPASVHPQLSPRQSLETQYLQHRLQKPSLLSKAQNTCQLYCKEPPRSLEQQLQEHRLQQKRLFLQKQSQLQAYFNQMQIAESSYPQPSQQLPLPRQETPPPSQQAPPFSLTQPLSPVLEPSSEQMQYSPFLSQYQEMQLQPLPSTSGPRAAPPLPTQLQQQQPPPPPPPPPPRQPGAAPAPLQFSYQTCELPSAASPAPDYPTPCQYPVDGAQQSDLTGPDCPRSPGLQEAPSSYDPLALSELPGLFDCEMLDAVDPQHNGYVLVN

IC50 [µM]	Structure (SMILES)
0.0077	Cn1ncc(CO[C@@H]2CNC[C@@H]2F)c1-c1ccn2nc(NC(=O)C3CC3)cc2c1 [Example 188, N-[5-[4-[[(3R,4S)-4-fluoropyrrolidin-3-yl]oxymethyl]-2-methyl-pyrazol-3-yl]pyrazolo[1,5-a]pyridin-2-yl]cyclopropanecarboxamide]
0.0265	C[C@H]1[C@H](OCc2cnn(C)c2-c2ccn3nc(NC(=O)C4CC4)cc3c2)CN1C [Example 190, N-[5-[4-[[(2S,3R)-1,2-dimethylazetidin-3-yl]oxymethyl]-2-methyl-pyrazol-3-yl]pyrazolo[1,5-a]pyridin-2-yl]cyclopropanecarboxamide]
0.0113	Cn1ncc(COC2(C)CNC2)c1-c1ccn2nc(NC(=O)C3CC3)cc2c1 [Example 191, N-[5-[2-methyl-4-[(3-methylazetidin-3-yl)oxymethyl]pyrazol-3-yl]pyrazolo[1,5-a]pyridin-2-yl]cyclopropanecarboxamide]
0.0196	CN1CC(C)(OCc2cnn(C)c2-c2ccn3nc(NC(=O)C4CC4)cc3c2)C1 [Example 192, N-[5-[4-[(1,3-dimethylazetidin-3-yl)oxymethyl]-2-methyl-pyrazol-3-yl]pyrazolo[1,5-a]pyridin-2-yl]cyclopropanecarboxamide]
0.0212	CCC1(OCc2cnn(C)c2-c2ccn3nc(NC(=O)C4CC4)cc3c2)CNC1 [Example 193, N-[5-[4-[(3-ethylazetidin-3-yl)oxymethyl]-2-methyl-pyrazol-3-yl]pyrazolo[1,5-a]pyridin-2-yl]cyclopropanecarboxamide]
0.0287	Cc1onc(OCC2(C(N)=O)CNC2)c1-c1ccn2nc(NC(=O)C3CC3)cc2c1 [Example 198, 3-[[4-[2-(cyclopropanecarbonylamino)pyrazolo[1,5-a]pyridin-5-yl]-5-methyl-isoxazol-3-yl]oxymethyl]azetidine-3-carboxamide]
0.0141	Cc1onc(OCC2(c3ccccc3)CNC2)c1-c1ccn2nc(NC(=O)C3CC3)cc2c1 [Example 199, N-[5-[5-methyl-3-[(3-phenylazetidin-3-yl)methoxy]isoxazol-4-yl]pyrazolo[1,5-a]pyridin-2-yl]cyclopropanecarboxamide]
0.0421	Cc1onc(OC[C@@]23CN[C@@H](CO2)C3)c1-c1ccn2nc(NC(=O)C3CC3)cc2c1 [Example 201, N-[5-[5-methyl-3-[[(1R,4R)-5-oxa-2-azabicyclo[2.2.1]heptan-4-yl]methoxy]isoxazol-4-yl]pyrazolo[1,5-a]pyridin-2-yl]cyclopropanecarboxamide]
0.0274	Cc1onc(OC[C@@]23C[C@@H](CO2)N(C)C3)c1-c1ccn2nc(NC(=O)C3CC3)cc2c1 [Example 203, N-[5-[5-methyl-3-[[(1S,4S)-2-methyl-5-oxa-2-azabicyclo[2.2.1]heptan-4-yl]methoxy]isoxazol-4-yl]pyrazolo[1,5-a]pyridin-2-yl]cyclopropanecarboxamide]
0.0174	Cc1onc(OC[C@H](N)c2ccccc2)c1-c1ccn2nc(NC(=O)C3CC3)cc2c1 [Example 204, N-[5-[3-[(2R)-2-amino-2-phenyl-ethoxy]-5-methyl-isoxazol-4-yl]pyrazolo[1,5-a]pyridin-2-yl]cyclopropanecarboxamide]
0.035	COC1(COc2noc(C)c2-c2ccn3nc(NC(=O)C4CC4)cc3c2)CCNCC1 [Example 206, N-[5-[3-[(4-methoxy-4-piperidyl)methoxy]-5-methyl-isoxazol-4-yl]pyrazolo[1,5-a]pyridin-2-yl]cyclopropanecarboxamide]
0.0076	Cc1onc(OC[C@H](c2ccccc2)N(C)C)c1-c1ccn2nc(NC(=O)C3CC3)cc2c1 [Example 207, N-[5-[3-[(2S)-2-(dimethylamino)-2-phenyl-ethoxy]-5-methyl-isoxazol-4-yl]pyrazolo[1,5-a]pyridin-2-yl]cyclopropanecarboxamide]
0.0153	Cc1onc(OC[C@H]2CCN2CC#N)c1-c1ccn2nc(NC(=O)C3CC3)cc2c1 [Example 213, N-[5-[3-[[(2R)-1-(cyanomethyl)azetidin-2-yl]methoxy]-5-methyl-isoxazol-4-yl]pyrazolo[1,5-a]pyridin-2-yl]cyclopropanecarboxamide]
0.0158	Cc1onc(OC[C@H]2CN(C)CC(C)(C)O2)c1-c1ccn2nc(NC(=O)C3CC3)cc2c1 [Example 214, N-[5-[5-methyl-3-[[(2R)-4,6,6-trimethylmorpholin-2-yl]methoxy]isoxazol-4-yl]pyrazolo[1,5-a]pyridin-2-yl]cyclopropanecarboxamide]
0.0049	Cc1onc(OC[C@@H](N)c2ccccc2F)c1-c1ccn2nc(NC(=O)C3CC3)cc2c1 [Example 220, N-[5-[3-[(2S)-2-amino-2-(2-fluorophenyl)ethoxy]-5-methyl-isoxazol-4-yl]pyrazolo[1,5-a]pyridin-2-yl]cyclopropanecarboxamide]
0.0232	Cc1onc(OC[C@H](N)c2ccccc2F)c1-c1ccn2nc(NC(=O)C3CC3)cc2c1 [Example 221, N-[5-[3-[(2R)-2-amino-2-(2-fluorophenyl)ethoxy]-5-methyl-isoxazol-4-yl]pyrazolo[1,5-a]pyridin-2-yl]cyclopropanecarboxamide]

IC50 [µM]	Structure (SMILES)
0.0275	Cc1onc(OC[C@@H](c2ccccc2F)N(C)C)c1-c1ccn2nc(NC(=O)C3CC3)cc2c1 [Example 222, N-[5-[3-[(2R)-2-(dimethylamino)-2-(2-fluorophenyl)ethoxy]-5-methyl-isoxazol-4-yl]pyrazolo[1,5-a]pyridin-2-yl]cyclopropanecarboxamide]
0.0307	Cc1onc(OC[C@@H](N)c2ccccn2)c1-c1ccn2nc(NC(=O)C3CC3)cc2c1 [Example 223, N-[5-[3-[(2S)-2-amino-2-(2-pyridyl)ethoxy]-5-methyl-isoxazol-4-yl]pyrazolo[1,5-a]pyridin-2-yl]cyclopropanecarboxamide]
0.0214	CN[C@H](COc1noc(C)c1-c1ccn2nc(NC(=O)C3CC3)cc2c1)c1ccccn1 [Example 224, N-[5-[5-methyl-3-[(2S)-2-(methylamino)-2-(2-pyridyl)ethoxy]isoxazol-4-yl]pyrazolo[1,5-a]pyridin-2-yl]cyclopropanecarboxamide]
0.012	Cc1onc(OC[C@@](C)(N)c2ccccc2)c1-c1ccn2nc(NC(=O)C3CC3)cc2c1 [Example 225, N-[5-[3-[(2S)-2-amino-2-phenyl-propoxy]-5-methyl-isoxazol-4-yl]pyrazolo[1,5-a]pyridin-2-yl]cyclopropanecarboxamide]
0.0128	Cc1onc(OC[C@](C)(c2ccccc2)N(C)C)c1-c1ccn2nc(NC(=O)C3CC3)cc2c1 [Example 226, N-[5-[3-[(2S)-2-(dimethylamino)-2-phenyl-propoxy]-5-methyl-isoxazol-4-yl]pyrazolo[1,5-a]pyridin-2-yl]cyclopropanecarboxamide]
0.0349	Cc1onc(O[C@@H]2CN[C@@H]3CCCO[C@@H]32)c1-c1ccn2nc(NC(=O)C3CC3)cc2c1 [Example 227, (3R, 3aS, 7aR)—N-[5-[3-(1,2,3,3a,5,6,7,7a-octahydropyrano[3,2-b]pyrrol-3-yloxy)-5-methyl-isoxazol-4-yl]pyrazolo[1,5-a]pyridin-2-yl]cyclopropanecarboxamide]
0.0238	Cn1ncc(OC[C@@H]2CCNC2)c1-c1ccn2nc(NC(=O)C3CC3)cc2c1 [Example 229, N-[5-[2-methyl-4-[[(3R)-pyrrolidin-3-yl]methoxy]pyrazol-3-yl]pyrazolo[1,5-a]pyridin-2-yl]cyclopropanecarboxamide]
0.0418	Cn1ncc(OC[C@@H]2CNCCO2)c1-c1ccn2nc(NC(=O)C3CC3)cc2c1 [Example 230, N-[5-[2-methyl-4-[[(2S)-morpholin-2-yl]methoxy]pyrazol-3-yl]pyrazolo[1,5-a]pyridin-2-yl]cyclopropanecarboxamide]
0.0469	Cn1ncc(OCC2(N)CCC2)c1-c1ccn2nc(NC(=O)C3CC3)cc2c1 [Example 231, N-[5-[4-[(1-aminocyclobutyl)methoxy]-2-methyl-pyrazol-3-yl]pyrazolo[1,5-a]pyridin-2-yl]cyclopropanecarboxamide]
0.0302	C[C@@H]1C[C@H](Oc2cnn(C)c2-c2ccn3nc(NC(=O)C4CC4)cc3c2)CN1 [Example 233, N-[5-[2-methyl-4-[(3S,5R)-5-methylpyrrolidin-3-yl]oxy-pyrazol-3-yl]pyrazolo[1,5-a]pyridin-2-yl]cyclopropanecarboxamide]
0.0011	Cn1ncc(OC[C@@]23CN[C@@H](CO2)C3)c1-c1ccn2nc(NC(=O)C3CC3)cc2c1 [Example 234, N-[5-[2-methyl-4-[[(1R,4R)-5-oxa-2-azabicyclo[2.2.1]heptan-4-yl]methoxy]pyrazol-3-yl]pyrazolo[1,5-a]pyridin-2-yl]cyclopropanecarboxamide]
< 0.000847	Cn1ncc(OC[C@@H](N)c2ccccc2)c1-c1ccn2nc(NC(=O)C3CC3)cc2c1 [Example 235, N-[5-[4-[(2S)-2-amino-2-phenyl-ethoxy]-2-methyl-pyrazol-3-yl]pyrazolo[1,5-a]pyridin-2-yl]cyclopropanecarboxamide]
0.0291	Cn1ncc(O[C@H]2CCNC2)c1-c1ccn2nc(NC(=O)C3CC3)cc2c1 [Example 236, N-[5-[2-methyl-4-[(3S)-pyrrolidin-3-yl]oxy-pyrazol-3-yl]pyrazolo[1,5-a]pyridin-2-yl]cyclopropanecarboxamide]
0.0107	Cn1ncc(OC[C@H](N)c2ccccc2)c1-c1ccn2nc(NC(=O)C3CC3)cc2c1 [Example 237, N-[5-[4-[(2R)-2-amino-2-phenyl-ethoxy]-2-methyl-pyrazol-3-yl]pyrazolo[1,5-a]pyridin-2-yl]cyclopropanecarboxamide]
0.0227	CN1CCC[C@@H]1COc1cnn(C)c1-c1ccn2nc(NC(=O)C3CC3)cc2c1 [Example 239, N-[5-[2-methyl-4-[[(2R)-1-methylpyrrolidin-2-yl]methoxy]pyrazol-3-yl]pyrazolo[1,5-a]pyridin-2-yl]cyclopropanecarboxamide]
